The target in assay [1] is Proteasome chymotrypsin-like activity (S26 protein from RPMI8226 cells) (Homo sapiens, UniProt P28074). Type of assay: biochemical. The conditions noted are these: S26 protein from RPMI8226 cell extract 2 ug/well, substrate 20 uM, 37° C., 90 minutes; read-out: Proteasome chymotrypsin-like activity inhibition IC50. A digest of the protocol: (§1)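 RPMI8226 myeloma cell lysate (S26 fraction, 20 mM Tris-HCl pH 8.0; 2 ug/well) incubated with compound serially diluted from 10 uM (0.5% DMSO) and 20 uM Suc-LLVY-AMC (chymotrypsin-like) or Z-LLE-AMC (caspase-like) for 90 min at 37 °C. Fluorescence read; IC50 from % of uninhibited signal.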

Assay [2] addresses Proteasome caspase-like activity (S26 protein from RPMI8226 cells) (Homo sapiens (Human), UniProt P28072). Nature of the assay: Proteasome caspase-like activity inhibition (Z-Leu-Leu-Glu-AMC fluorogenic substrate, RPMI8226 cell extract). The class given is biochemical. The conditions noted are these: S26 protein from RPMI8226 cell extract 2 ug/well, substrate 20 uM, 37° C., 90 minutes. A digest of the protocol: as §1

Where only a bound is given, the exact number is not on record here.

Chain of Proteasome chymotrypsin-like activity (S26 protein from RPMI8226 cells) (P28074 60-263 limits assumed): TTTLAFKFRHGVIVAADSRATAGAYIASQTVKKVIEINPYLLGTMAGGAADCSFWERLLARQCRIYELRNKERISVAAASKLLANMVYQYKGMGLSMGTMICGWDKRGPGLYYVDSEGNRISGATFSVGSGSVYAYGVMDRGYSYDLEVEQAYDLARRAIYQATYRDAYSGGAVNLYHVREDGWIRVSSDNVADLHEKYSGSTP
Chain of Proteasome caspase-like activity (S26 protein from RPMI8226 cells) (P28072 whole entry): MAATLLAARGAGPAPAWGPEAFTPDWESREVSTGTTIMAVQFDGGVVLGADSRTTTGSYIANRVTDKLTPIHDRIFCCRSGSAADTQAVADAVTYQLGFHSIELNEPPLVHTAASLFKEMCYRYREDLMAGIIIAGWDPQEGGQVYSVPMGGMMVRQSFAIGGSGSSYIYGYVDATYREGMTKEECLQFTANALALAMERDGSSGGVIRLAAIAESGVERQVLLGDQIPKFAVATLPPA

Consider `CC(C)C[C@H](NC(=O)C1(Cc2ccccc2)CC(CNC(=O)c2cccc3cccnc23)=NO1)B(O)O` (stereo partly drawn) [Example 113, ((1R)-1-(5-benzyl-3-((quinolin-8-carboxamido)methyl)-4,5-dihydroisoxazol-5-carboxamido)-3-methylbutyl)boronic acid], for which the IC50 is less than 10 nM in assay [1] and greater than 500 nM in assay [2].

As usually defined, the IC50 is the concentration that inhibits the measured activity by half.

The values are drawn from US12570675B2, “Boronic acid compounds” (LG CHEM, LTD., priority 2020, dated 2026).
